Measured values from ChEMBL document CHEMBL2034905, “Synthesis of benzimidazolyl-1,3,4-oxadiazol-2ylthio-N-phenyl (benzothiazolyl) acetamides as antibacterial, antifungal and antituberculosis agents” (Eur J Med Chem, 2012).
Values after ≈ are worked out from the molar mass of the structure shown.

Tests used:
[1] = tested on: Mycobacterium tuberculosis; experiment: Antituberculosis activity against Mycobacterium tuberculosis H37Rv by Lowenstein-Jensen method; format: functional
[2] = tested on: Mycobacterium tuberculosis; experiment: Antituberculosis activity against Mycobacterium tuberculosis H37Rv at 6.25 ug/ml by Lowenstein-Jensen method; format: functional
Staphylococcus aureus [3] = experiment: Antibacterial activity against Staphylococcus aureus MTCC 96 at 100 ug/disc by paper disc diffusion technique; format: functional; conditions: read-out: IZ
Bacillus cereus [4] = experiment: Antibacterial activity against Bacillus cereus MTCC 430 at 100 ug/disc by paper disc diffusion technique; format: functional; conditions: read-out: IZ
Escherichia coli [5] = experiment: Antibacterial activity against Escherichia coli MTCC 739 at 100 ug/disc by paper disc diffusion technique; format: functional; conditions: read-out: IZ
Pseudomonas aeruginosa [6] = experiment: Antibacterial activity against Pseudomonas aeruginosa MTCC 741 at 100 ug/disc by paper disc diffusion technique; format: functional; conditions: read-out: IZ
Klebsiella pneumoniae [7] = experiment: Antibacterial activity against Klebsiella pneumoniae MTCC 109 at 100 ug/disc by paper disc diffusion technique; format: functional; conditions: read-out: IZ
Salmonella typhi [8] = experiment: Antibacterial activity against Salmonella typhi MTCC 733 at 100 ug/disc by paper disc diffusion technique; format: functional, Salmonella enterica subsp. enterica serovar Typhi; conditions: Salmonella enterica, read-out: IZ
Proteus vulgaris [9] = experiment: Antibacterial activity against Proteus vulgaris MTCC 1771 at 100 ug/disc by paper disc diffusion technique; format: functional; conditions: read-out: IZ
Shigella flexneri [10] = experiment: Antibacterial activity against Shigella flexneri MTCC 1457 at 100 ug/disc by paper disc diffusion technique; format: functional; conditions: read-out: IZ
Staphylococcus aureus [11] = experiment: Antibacterial activity against Staphylococcus aureus MTCC 96 by agar streak dilution method; format: functional
Bacillus cereus [12] = experiment: Antibacterial activity against Bacillus cereus MTCC 430 by agar streak dilution method; format: functional
Escherichia coli [13] = experiment: Antibacterial activity against Escherichia coli MTCC 739 by agar streak dilution method; format: functional
Pseudomonas aeruginosa [14] = experiment: Antibacterial activity against Pseudomonas aeruginosa MTCC 741 by agar streak dilution method; format: functional
Klebsiella pneumoniae [15] = experiment: Antibacterial activity against Klebsiella pneumoniae MTCC 109 by agar streak dilution method; format: functional
Salmonella typhi [16] = experiment: Antibacterial activity against Salmonella typhi MTCC 733 by agar streak dilution method; format: functional, Salmonella enterica subsp. enterica serovar Typhi; conditions: Salmonella enterica
Proteus vulgaris [17] = experiment: Antibacterial activity against Proteus vulgaris MTCC 1771 by agar streak dilution method; format: functional
Shigella flexneri [18] = experiment: Antibacterial activity against Shigella flexneri MTCC 1457 by agar streak dilution method; format: functional
Aspergillus niger [19] = experiment: Antifungal activity against Aspergillus niger MTCC 282 at 100 ug/disc by paper disc diffusion technique; format: functional; conditions: read-out: IZ
Aspergillus fumigatus [20] = experiment: Antifungal activity against Aspergillus fumigatus MTCC 343 at 100 ug/disc by paper disc diffusion technique; format: functional; conditions: read-out: IZ
Aspergillus clavatus [21] = experiment: Antifungal activity against Aspergillus clavatus MTCC 1323 at 100 ug/disc by paper disc diffusion technique; format: functional; conditions: read-out: IZ
Candida albicans [22] = experiment: Antifungal activity against Candida albicans MTCC 183 at 100 ug/disc by paper disc diffusion technique; format: functional; conditions: read-out: IZ
Aspergillus niger [23] = experiment: Antifungal activity against Aspergillus niger MTCC 282 by agar streak dilution method; format: functional
Aspergillus fumigatus [24] = experiment: Antifungal activity against Aspergillus fumigatus MTCC 343 by agar streak dilution method; format: functional
Aspergillus clavatus [25] = experiment: Antifungal activity against Aspergillus clavatus MTCC 1323 by agar streak dilution method; format: functional
Candida albicans [26] = experiment: Antifungal activity against Candida albicans MTCC 183 by agar streak dilution method; format: functional
[27] = tested on: Mycobacterium tuberculosis; experiment: Antituberculosis activity against Mycobacterium tuberculosis H37Rv by BACTEC MGIT method; format: functional

| SMILES | MIC [1] | inhibition at 6.25 µg/mL [2] | zone of inhibition at 100 µg/disc (Staphylococcus aureus [3]) | zone of inhibition at 100 µg/disc (Bacillus cereus [4]) | zone of inhibition at 100 µg/disc (Escherichia coli [5]) | zone of inhibition at 100 µg/disc (Pseudomonas aeruginosa [6]) | zone of inhibition at 100 µg/disc (Klebsiella pneumoniae [7]) | zone of inhibition at 100 µg/disc (Salmonella typhi [8]) | zone of inhibition at 100 µg/disc (Proteus vulgaris [9]) | zone of inhibition at 100 µg/disc (Shigella flexneri [10]) | MIC (Staphylococcus aureus [11]) | MIC (Bacillus cereus [12]) | MIC (Escherichia coli [13]) | MIC (Pseudomonas aeruginosa [14]) | MIC (Klebsiella pneumoniae [15]) | MIC (Salmonella typhi [16]) | MIC (Proteus vulgaris [17]) | MIC (Shigella flexneri [18]) | zone of inhibition at 100 µg/disc (Aspergillus niger [19]) | zone of inhibition at 100 µg/disc (Aspergillus fumigatus [20]) | also measured |
| --- | --- | --- | --- | --- | --- | --- | --- | --- | --- | --- | --- | --- | --- | --- | --- | --- | --- | --- | --- | --- | --- |
| O=C(CSc1nnc(Cn2cnc3ccccc32)o1)Nc1ccc(F)cc1 | 50 µg/mL (≈ 130 µM) | 97% | 18 mm | 16 mm | 18 mm | 24 mm | 22 mm | 21 mm | 14 mm | 23 mm | 25 µg/mL (≈ 65.2 µM) | 50 µg/mL (≈ 130 µM) | 50 µg/mL (≈ 130 µM) | 12.5 µg/mL (≈ 32.6 µM) | 50 µg/mL (≈ 130 µM) | 50 µg/mL (≈ 130 µM) | 50 µg/mL (≈ 130 µM) | 12.5 µg/mL (≈ 32.6 µM) | 19 mm | 23 mm | zone of inhibition at 100 µg/disc (Aspergillus clavatus [21]): 17 mm; zone of inhibition at 100 µg/disc (Candida albicans [22]): 16 mm; MIC (Aspergillus niger [23]): 50 µg/mL (≈ 130 µM); MIC (Aspergillus fumigatus [24]): 50 µg/mL (≈ 130 µM); MIC (Aspergillus clavatus [25]): 100 µg/mL (≈ 261 µM); MIC (Candida albicans [26]): 100 µg/mL (≈ 261 µM); MIC [27]: > 6.25 µg/mL |
| CCOc1ccc(NC(=O)CSc2nnc(Cn3cnc4ccccc43)o2)cc1 | 50 µg/mL (≈ 122 µM) | 98% | 14 mm | 18 mm | 23 mm | 16 mm | < 10 mm | 21 mm | 25 mm | 22 mm | 50 µg/mL (≈ 122 µM) | 50 µg/mL (≈ 122 µM) | 25 µg/mL (≈ 61.1 µM) | 100 µg/mL (≈ 244 µM) | 100 µg/mL (≈ 244 µM) | 50 µg/mL (≈ 122 µM) | 12.5 µg/mL (≈ 30.5 µM) | 25 µg/mL (≈ 61.1 µM) | 17 mm | 11 mm | zone of inhibition at 100 µg/disc (Aspergillus clavatus [21]): 16 mm; zone of inhibition at 100 µg/disc (Candida albicans [22]): 24 mm; MIC (Aspergillus niger [23]): 50 µg/mL (≈ 122 µM); MIC (Aspergillus fumigatus [24]): 100 µg/mL (≈ 244 µM); MIC (Aspergillus clavatus [25]): 100 µg/mL (≈ 244 µM); MIC (Candida albicans [26]): 25 µg/mL (≈ 61.1 µM); MIC [27]: > 6.25 µg/mL |
| O=C(CSc1nnc(Cn2cnc3ccccc32)o1)Nc1ccc(Br)cc1 | 12.5 µg/mL (≈ 28.1 µM) | 99% | 23 mm | 26 mm | 19 mm | 26 mm | 22 mm | 22 mm | 17 mm | 22 mm | 6.25 µg/mL (≈ 14.1 µM) | 12.5 µg/mL (≈ 28.1 µM) | 50 µg/mL (≈ 113 µM) | 12.5 µg/mL (≈ 28.1 µM) | 50 µg/mL (≈ 113 µM) | 50 µg/mL (≈ 113 µM) | 100 µg/mL (≈ 225 µM) | 25 µg/mL (≈ 56.3 µM) | 16 mm | 24 mm | zone of inhibition at 100 µg/disc (Aspergillus clavatus [21]): 23 mm; zone of inhibition at 100 µg/disc (Candida albicans [22]): 16 mm; MIC (Aspergillus niger [23]): 100 µg/mL (≈ 225 µM); MIC (Aspergillus fumigatus [24]): 25 µg/mL (≈ 56.3 µM); MIC (Aspergillus clavatus [25]): 50 µg/mL (≈ 113 µM); MIC (Candida albicans [26]): 100 µg/mL (≈ 225 µM); MIC [27]: > 6.25 µg/mL |
| N#Cc1ccc(NC(=O)CSc2nnc(Cn3cnc4ccccc43)o2)cc1 | 62.5 µg/mL (≈ 160 µM) | 96% | 18 mm | 19 mm | 19 mm | 21 mm | 24 mm | 20 mm | 19 mm | 17 mm | 25 µg/mL (≈ 64 µM) | 50 µg/mL (≈ 128 µM) | 50 µg/mL (≈ 128 µM) | 50 µg/mL (≈ 128 µM) | 25 µg/mL (≈ 64 µM) | 50 µg/mL (≈ 128 µM) | 50 µg/mL (≈ 128 µM) | 100 µg/mL (≈ 256 µM) | < 10 mm | 14 mm | zone of inhibition at 100 µg/disc (Aspergillus clavatus [21]): 13 mm; zone of inhibition at 100 µg/disc (Candida albicans [22]): 11 mm; MIC (Aspergillus niger [23]): 100 µg/mL (≈ 256 µM); MIC (Aspergillus fumigatus [24]): 100 µg/mL (≈ 256 µM); MIC (Aspergillus clavatus [25]): 100 µg/mL (≈ 256 µM); MIC (Candida albicans [26]): 100 µg/mL (≈ 256 µM); MIC [27]: > 6.25 µg/mL |
| O=C(CSc1nnc(Cn2cnc3ccccc32)o1)Nc1ccccc1 | 500 µg/mL (≈ 1370 µM) | 95% | 12 mm | < 10 mm | 13 mm | 21 mm | 13 mm | < 10 mm | 13 mm | 13 mm | 100 µg/mL (≈ 274 µM) | 100 µg/mL (≈ 274 µM) | 100 µg/mL (≈ 274 µM) | 50 µg/mL (≈ 137 µM) | 100 µg/mL (≈ 274 µM) | 100 µg/mL (≈ 274 µM) | 100 µg/mL (≈ 274 µM) | 100 µg/mL (≈ 274 µM) | < 10 mm | 13 mm | zone of inhibition at 100 µg/disc (Aspergillus clavatus [21]): < 10 mm; zone of inhibition at 100 µg/disc (Candida albicans [22]): < 10 mm; MIC (Aspergillus niger [23]): 100 µg/mL (≈ 274 µM); MIC (Aspergillus fumigatus [24]): 100 µg/mL (≈ 274 µM); MIC (Aspergillus clavatus [25]): 100 µg/mL (≈ 274 µM); MIC (Candida albicans [26]): 100 µg/mL (≈ 274 µM); MIC [27]: > 6.25 µg/mL |
| O=C(CSc1nnc(Cn2cnc3ccccc32)o1)Nc1ccc([N+](=O)[O-])cc1 | 100 µg/mL (≈ 244 µM) | 94% | 20 mm | 13 mm | 12 mm | 20 mm | 20 mm | 13 mm | 14 mm | 19 mm | 12.5 µg/mL (≈ 30.5 µM) | 100 µg/mL (≈ 244 µM) | 100 µg/mL (≈ 244 µM) | 50 µg/mL (≈ 122 µM) | 100 µg/mL (≈ 244 µM) | 100 µg/mL (≈ 244 µM) | 100 µg/mL (≈ 244 µM) | 100 µg/mL (≈ 244 µM) | 18 mm | 18 mm | zone of inhibition at 100 µg/disc (Aspergillus clavatus [21]): 24 mm; zone of inhibition at 100 µg/disc (Candida albicans [22]): 15 mm; MIC (Aspergillus niger [23]): 50 µg/mL (≈ 122 µM); MIC (Aspergillus fumigatus [24]): 100 µg/mL (≈ 244 µM); MIC (Aspergillus clavatus [25]): 50 µg/mL (≈ 122 µM); MIC (Candida albicans [26]): 100 µg/mL (≈ 244 µM); MIC [27]: > 6.25 µg/mL |
